Laboratory results: ChEMBL document CHEMBL5154855 (J Med Chem, 2022)
Each block holds one compound with its values, some of them ahead of it. The source made the active and inactive calls. No cut-off for these calls is given here. Positions of bridges follow the written chain, without caps; N, C: chain ends. Non-standard residues stand in square brackets, D forms with d. Residues, ends and D or L forms follow the SMILES beside them. d2Nal = N[C@H](Cc1ccc2ccccc2c1)C(=O)O; Nle = CCCC[C@H](N)C(=O)O

Assays:
[1] = biological target: Melanocortin receptor 5 (Homo sapiens) (UniProt P33032); test: Agonist activity at human MC5R transfected in HEK293 cells co-transfected with GScAMP22F assessed as increase in cAMP level by split luciferase cAMP sensor dynamic assay relative to control; format: functional, cell-based
Melanocortin receptor 3 [2] = biological target: T1, Melanocortin receptor 3 (Homo sapiens, UniProt P41968); test: Agonist activity at human MC3R transfected in HEK293 cells assessed as cAMP accumulation by split-luciferase assay
[3] = biological target: Melanocyte-stimulating hormone receptor (Homo sapiens) (UniProt Q01726); test: Agonist activity at human MC1R transfected in HEK293 cells co-transfected with GScAMP22F assessed as increase in cAMP level by split luciferase cAMP sensor dynamic assay relative to control; format: functional, cell-based
Melanocortin receptor 3 [4] = biological target: T1, Melanocortin receptor 3; test: Agonist activity at human MC3R transfected in HEK293T cells co-transfected with GScAMP22F assessed as increase in cAMP level; format: functional, cell-based; conditions: HEK293, filed as agonist
[5] = biological target: Melanocortin receptor 4 (Homo sapiens) (UniProt P32245); test: Agonist activity at human MC4R transfected in HEK293T cells co-transfected with GScAMP22F assessed as increase in cAMP level; format: functional, cell-based; conditions: HEK293, filed as agonist
[6] = biological target: Melanocortin receptor 4 (Homo sapiens) (UniProt P32245); test: Antagonist activity at human MC4R transfected in HEK293T cells co-transfected with GScAMP22F assessed as inhibition of alpha-MSH-indued cAMP production; format: functional, cell-based; conditions: HEK293, filed as antagonist
Melanocortin receptor 3 [7] = biological target: T1, Melanocortin receptor 3; test: Antagonist activity at human MC3R transfected in HEK293T cells co-transfected with GScAMP22F assessed as inhibition of alpha-MSH-indued cAMP production; format: functional, cell-based; conditions: HEK293, filed as antagonist

Sequence of Melanocortin receptor 4 (Homo sapiens) (P32245 whole entry): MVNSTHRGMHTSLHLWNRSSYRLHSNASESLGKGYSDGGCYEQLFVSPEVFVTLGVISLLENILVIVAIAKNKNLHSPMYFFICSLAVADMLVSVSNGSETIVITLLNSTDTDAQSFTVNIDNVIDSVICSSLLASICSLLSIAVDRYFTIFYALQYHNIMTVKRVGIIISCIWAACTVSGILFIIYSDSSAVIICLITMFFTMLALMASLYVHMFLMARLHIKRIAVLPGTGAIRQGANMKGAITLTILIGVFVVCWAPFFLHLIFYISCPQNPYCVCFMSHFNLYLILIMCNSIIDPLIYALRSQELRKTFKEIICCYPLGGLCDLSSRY
T1 sequence (P41968 whole entry): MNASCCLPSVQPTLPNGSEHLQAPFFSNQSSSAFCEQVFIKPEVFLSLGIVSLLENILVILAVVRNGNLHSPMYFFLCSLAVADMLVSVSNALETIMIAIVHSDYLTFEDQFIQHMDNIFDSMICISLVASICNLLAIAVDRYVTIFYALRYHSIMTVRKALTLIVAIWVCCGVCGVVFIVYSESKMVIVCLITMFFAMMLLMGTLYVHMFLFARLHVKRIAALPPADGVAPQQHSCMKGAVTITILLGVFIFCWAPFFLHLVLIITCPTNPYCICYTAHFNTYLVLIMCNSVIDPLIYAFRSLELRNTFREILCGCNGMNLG
Sequence of Melanocortin receptor 5 (Homo sapiens) (P33032 whole entry): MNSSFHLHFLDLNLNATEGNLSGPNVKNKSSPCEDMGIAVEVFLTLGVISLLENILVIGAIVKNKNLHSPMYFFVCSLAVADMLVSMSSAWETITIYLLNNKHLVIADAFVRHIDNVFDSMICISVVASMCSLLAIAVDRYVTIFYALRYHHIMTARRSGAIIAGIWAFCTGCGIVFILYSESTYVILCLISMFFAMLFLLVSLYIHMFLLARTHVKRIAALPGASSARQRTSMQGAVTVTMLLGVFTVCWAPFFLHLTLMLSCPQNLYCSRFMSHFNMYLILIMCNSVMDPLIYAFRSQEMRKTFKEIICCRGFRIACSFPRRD
Sequence of Melanocyte-stimulating hormone receptor (Homo sapiens) (Q01726 whole entry, looked up): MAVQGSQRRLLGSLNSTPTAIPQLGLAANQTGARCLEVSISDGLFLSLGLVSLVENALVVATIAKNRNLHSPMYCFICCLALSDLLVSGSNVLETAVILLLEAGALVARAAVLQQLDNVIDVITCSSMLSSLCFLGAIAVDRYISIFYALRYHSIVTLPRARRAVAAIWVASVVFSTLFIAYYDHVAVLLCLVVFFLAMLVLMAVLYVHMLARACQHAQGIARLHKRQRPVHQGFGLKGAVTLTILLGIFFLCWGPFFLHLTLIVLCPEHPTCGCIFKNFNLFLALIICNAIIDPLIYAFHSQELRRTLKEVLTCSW

Structure (SMILES): CCCC[C@H](NC(C)=O)C(=O)N[C@H]1CC(=O)NCCCC[C@@H](C(N)=O)NC(=O)[C@H](Cc2c[nH]c3ccccc23)NC(=O)[C@H](CCCNC(=N)N)NC(=O)[C@@H](Cc2ccc3ccccc3c2)NC(=O)[C@@H]2CCCN2C(=O)[C@@H]2CCCN2C1=O (Ac-[Nle]DPP[d2Nal]RWK-NH2; lactam 2-8)
Emax [3]: < 10%

Structure (SMILES): CCCC[C@H](N)C(=O)N[C@H]1CC(=O)NCCCC[C@@H](C(N)=O)NC(=O)[C@H](Cc2c[nH]c3ccccc23)N(C)C(=O)[C@H](CCCNC(=N)N)NC(=O)[C@@H](Cc2ccccc2)NC(=O)[C@@H]2CCCN2C1=O
Activity (Melanocortin receptor 3 [4]): Active
Activity [5]: Active

Structure (SMILES): CC(=O)N[C@@H](CCCNC(=N)N)C(=O)N[C@@H]1CSSC[C@H](C(N)=O)NC(=O)[C@H](Cc2c[nH]c3ccccc23)NC(=O)[C@H](CCCNC(=N)N)NC(=O)[C@@H](Cc2ccc3ccccc3c2)NC(=O)[C@H](Cc2c[nH]cn2)NC(=O)[C@@H](C)NC1=O
Activity [6]: Active
Activity (Melanocortin receptor 3 [7]): Active

Structure (SMILES): CC(=O)N[C@@H](CCCNC(=N)N)C(=O)N[C@H]1CSSC[C@@H](C(N)=O)NC(=O)[C@H](Cc2c[nH]c3ccccc23)NC(=O)[C@H](CCCNC(=N)N)NC(=O)[C@@H](Cc2ccccc2)NC(=O)[C@H](Cc2c[nH]cn2)NC(=O)[C@@H](C)NC1=O
Activity (Melanocortin receptor 3 [4]): Active
Activity [5]: Active

Further lines, results first:

Emax [1]: < 10%
Structure (SMILES): CCCC[C@H](NC(=O)[C@@H](NC(=O)[C@@H](N)Cc1ccc(O)cc1)C(C)C)C(=O)NCC(=O)N1CCC[C@H]1C(=O)N[C@H](Cc1ccc2ccccc2c1)C(=O)N[C@@H](CCCN=C(N)N)C(=O)N[C@@H](Cc1c[nH]c2ccccc12)C(=O)N[C@@H](CC(=O)O)C(=O)N[C@@H](CCCN=C(N)N)C(=O)N[C@@H](Cc1ccccc1)C(=O)NCC(N)=O (H-YV[Nle]GP[d2Nal]RWDRFG-NH2)

EC50 (Melanocortin receptor 3 [2]): > 10 µM
Structure (SMILES): CCCC[C@H](NC(=O)[C@@H](NC(=O)[C@@H](N)Cc1ccc(O)cc1)C(C)C)C(=O)NCC(=O)N[C@@H](Cc1c[nH]cn1)C(=O)N[C@H](Cc1ccc2ccccc2c1)C(=O)N[C@@H](CCCN=C(N)N)C(=O)N[C@@H](Cc1c[nH]c2ccccc12)C(=O)N[C@@H](CC(=O)O)C(=O)N[C@@H](CCCN=C(N)N)C(=O)N[C@@H](Cc1ccccc1)C(=O)NCC(N)=O

Activity [6]: Active
Activity (Melanocortin receptor 3 [7]): Active
Structure (SMILES): CCCC[C@H](NC(=O)[C@@H](NC(=O)[C@@H](N)Cc1ccc(O)cc1)C(C)C)C(=O)NCC(=O)N[C@@H](Cc1cnc[nH]1)C(=O)N[C@H](Cc1ccc2ccccc2c1)C(=O)N[C@@H](CCCNC(=N)N)C(=O)N[C@H](Cc1c[nH]c2ccccc12)C(=O)N[C@@H](CC(=O)O)C(=O)N[C@@H](CCCNC(=N)N)C(=O)N[C@@H](Cc1ccccc1)C(=O)NCC(=O)O

Activity [5]: Active
Structure (SMILES): CCCC[C@H](NC(=O)[C@@H](NC(=O)[C@@H](N)Cc1ccc(O)cc1)C(C)C)C(=O)NCC(=O)N[C@@H](Cc1cnc[nH]1)C(=O)N[C@@H](Cc1ccccc1)C(=O)N[C@@H](CCCNC(=N)N)C(=O)N[C@H](Cc1c[nH]c2ccccc12)C(=O)N[C@@H](CC(=O)O)C(=O)N[C@@H](CCCNC(=N)N)C(=O)N[C@@H](Cc1ccccc1)C(=O)NCC(=O)O
